Assay results taken from ChEMBL document CHEMBL1141915, “1,3-Dioxo-4-methyl-2,3-dihydro-1H-pyrrolo[3,4-c]quinolines as potent caspase-3 inhibitors” (Bioorg Med Chem Lett, 2005).

Target: T1, Caspase-3 (Homo sapiens, UniProt P42574)
T1 sequence (P42574 whole entry): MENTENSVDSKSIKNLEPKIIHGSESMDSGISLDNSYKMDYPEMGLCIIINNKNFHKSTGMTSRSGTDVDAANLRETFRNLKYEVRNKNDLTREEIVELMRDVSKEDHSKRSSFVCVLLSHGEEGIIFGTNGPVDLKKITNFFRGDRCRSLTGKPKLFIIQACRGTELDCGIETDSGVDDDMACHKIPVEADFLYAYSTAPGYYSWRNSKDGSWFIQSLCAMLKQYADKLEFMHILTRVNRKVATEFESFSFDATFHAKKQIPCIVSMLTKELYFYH
Experiment: In vitro inhibitory concentration measured against caspase-3

Row | IC50 [µM] | Compound
1 | 6.36 | Cc1nc2ccccc2c2c1C(=O)N(C)C2=O
2 | > 100 | Cc1nc2ccccc2c2c1C(=O)NC2=O
